Reference: paper PMC5468338, “Novel Class IIa-Selective Histone Deacetylase Inhibitors Discovered Using an in Silico Virtual Screening Approach” (Scientific Reports, 2017)

Biological target: HDAC4 (Homo sapiens, UniProt P56524)
Experiment: HDAC fluorometric activity assay, HDAC4
Details: tested at 40 μM, SAHA as reference
Excerpt: A fluorogenic based assay[54] was used to validate the 40 candidate compounds.

Chain of HDAC4 (P56524 whole entry): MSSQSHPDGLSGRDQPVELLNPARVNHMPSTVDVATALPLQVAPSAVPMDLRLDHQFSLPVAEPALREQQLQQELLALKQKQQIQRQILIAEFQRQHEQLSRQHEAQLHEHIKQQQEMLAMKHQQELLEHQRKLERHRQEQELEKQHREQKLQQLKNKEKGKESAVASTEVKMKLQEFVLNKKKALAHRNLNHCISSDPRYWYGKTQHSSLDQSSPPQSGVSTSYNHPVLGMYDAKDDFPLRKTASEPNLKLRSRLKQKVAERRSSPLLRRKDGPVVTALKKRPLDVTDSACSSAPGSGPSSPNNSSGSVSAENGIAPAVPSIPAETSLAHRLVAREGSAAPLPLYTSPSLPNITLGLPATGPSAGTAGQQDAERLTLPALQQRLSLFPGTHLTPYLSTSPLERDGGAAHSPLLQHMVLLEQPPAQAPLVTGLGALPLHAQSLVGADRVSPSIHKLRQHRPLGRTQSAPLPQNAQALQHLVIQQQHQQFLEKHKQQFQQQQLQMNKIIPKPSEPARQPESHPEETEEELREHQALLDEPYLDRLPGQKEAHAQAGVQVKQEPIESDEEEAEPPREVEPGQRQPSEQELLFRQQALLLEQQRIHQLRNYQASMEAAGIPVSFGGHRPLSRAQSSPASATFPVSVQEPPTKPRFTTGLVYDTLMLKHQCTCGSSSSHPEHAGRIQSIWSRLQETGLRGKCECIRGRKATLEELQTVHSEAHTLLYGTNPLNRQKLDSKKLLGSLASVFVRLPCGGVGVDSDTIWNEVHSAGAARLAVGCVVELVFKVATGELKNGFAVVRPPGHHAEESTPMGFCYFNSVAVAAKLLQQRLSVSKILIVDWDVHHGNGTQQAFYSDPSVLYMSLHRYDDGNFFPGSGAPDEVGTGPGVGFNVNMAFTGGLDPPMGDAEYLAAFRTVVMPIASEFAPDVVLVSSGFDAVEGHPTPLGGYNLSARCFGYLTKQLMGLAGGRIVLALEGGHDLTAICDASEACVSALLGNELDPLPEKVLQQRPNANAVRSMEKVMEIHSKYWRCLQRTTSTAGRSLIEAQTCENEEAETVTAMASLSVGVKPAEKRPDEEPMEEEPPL

O=C(C=Cc1ccc(O)c(O)c1)c1ccc(O)c(O)c1O [Compound A93087]
HDAC4 inhibitory activity in initial screen compared to SAHA: significantly higher inhibitory activities
